Laboratory results published in patent publication US20230340127A1, “METHODS AND COMPOSITIONS FOR CANCER TREATMENT BY INHIBITION OF FBXO44” (Sanford Burnham Prebys Medical Discovery Institute, priority 2022, published 2023).

How the values were obtained:
[1] = system: chromatin associated H3K9me3 modifications in MDA-MB-231 cells; assay: Immunofluorescence of chromatin associated H3K9me3 after F5446 treatment; type: cell-based, human; conditions: vehicle or F5446 for 48 hrs, IF (FIG. 10E)
Method: Immunofluorescence (IF): IF was performed to detect chromatin associated H3K9me3 in siRNA of FBXO44 or control. Briefly, cells were grown on Laminin-coated coverslips (neuVitro no. GG-12-laminin), washed twice with cold PBS, and then fixed with 4% paraformaldehyde for 20 min at 25° C. followed by permeabilization with 0.5% Triton X-100 in PBS for 5 min. Cells were fixed with chilled methanol for 5 min at −20° C. After 3×10 min washes in PBS, cells were incubated in blocking buffer (10 mM Tris-Cl [pH 7.5], 120 mM KCl, 20 mM NaCl, 0.5 mM EDTA, 0.1% Triton X-100, 10% milk, 2% BSA) overnight at 4° C. The relevant primary antibodies diluted in blocking buffer were then added. Specifically, 1:500 dilution for anti-H3K9me3 (Abcam no. ab8898). Cells were washed 3×10 min with KCMT buffer (10 mM Tris-Cl [pH 7.5], 120 mM KCl, 20 mM NaCl, 0.5 mM EDTA, 0.1% Triton X-100) and incubated with Alexa Fluor 488-labeled anti-rabbit (Thermo Fisher Scientific no. A-21441) or Alexa Fluor 594-labeled anti-mouse (Cell Signaling Technologies no. 8890) antibodies at 1:500 dilution for 1 hr at 25° C. After 3×10 min washes with KCMT buffer, cells were stained with DAPI (Thermo Fisher Scientific no. D1306), coverslips mounted with anti-fade mounting medium (Vector Laboratories no. H-1000), and slides examined by fluorescence microscopy (Nikon Inverted TE300) or confocal microscopy (Zeiss LSM 710 NLO). […]

[2] = system: HMECs and primary astrocytes; assay: Viability of normal cells after F5446 treatment; type: cell-based, human; conditions: F5446 for 48 hrs (FIG. 9G)
Method: To assess whether this epigenetic regulatory pathway could potentially be targeted for cancer treatment, SUV39H1 and its chemical inhibitor F5446 were used to perform experiments. IF, qRT-PCR, and growth curve experiments were performed as described in previous examples. Human mammary epithelial cells (HMECs) and primary astrocytes were also used in the experiments. HMECs (Lonza, #CC-2551) were cultured in MEGM BulletKit Medium (Lonza, #CC-3150). Primary astrocytes were cultured Astrocyte Medium (ScienCell, #1801) and cells were incubated at 37° C. in 5% CO2. All cells were incubated at 37° C. in 5% CO2. The cell cultures were authenticated by short tandem repeat (STR) analysis.
To establish the potential of a therapeutic index for FBXO44/SUV39H1, the role of FBXO44/SUV39H1 in RE silencing in normal cells was investigated using human mammary epithelial cells (HMECs) or primary astrocytes. HMECs and primary astrocytes were cultured and treated with F5446 as described in example 17. Growth curve, immunoblotting, IF, ChIP experiments were performed as described in previous examples.

COC(=O)c1cc2c(n1S(=O)(=O)c1ccc(Cl)cc1)C(=O)C(=O)c1[nH]cc(C(=O)OCc3ccccc3)c1-2 [F5446]
chromatin-associated H3K9me3 [1]: reduced | HMEC and astrocyte viability [2]: minimally affected
